# Laboratory results published in patent US20230167088A1, “1-PYRAZINYLPYRAZOLYL-3-OXYALKYL ACIDS AND THEIR DERIVATIVES, AND THEIR USE FOR CONTROL OF UNDESIRED PLANT GROWTH” (BAYER AKTIENGESELLSCHAFT, priority 2020, published 2023).
# Tests used:
# AVEFA [1] = test: Herbicidal pre-emergence action 2a (greenhouse pots, visual scoring); format: in vivo, Avena fatua; conditions: dosage 320 g/ha, visual scoring after about 3 weeks
# Source text: (§1) [table] a) Seeds of monocotyledonous and dicotyledonous weed plants and crop plants are placed in plastic or organic plant pots and covered with soil. The compounds of the invention, formulated in the form of wettable powders (WP) or as emulsion concentrates (EC), are then applied onto the surface of the covering soil as aqueous suspension or emulsion with addition of 0.5% additive at a water application rate of 600 1/ha (converted). After the treatment, the pots are placed in a greenhouse and kept under good growth conditions for the trial plants. After about 3 weeks, the effect of the preparations is scored visually in comparison with untreated controls as percentages. For example, 100% activity=the plants have died, 0% activity=like control plants. Tables B1 to B15 below show the effects of selected compounds of the general formula (I) according to Tables 1 and 2 on various harmful plants and an application rate corresponding to 320 g/ha and/or 80 g/ha, which were obtained by the experimental procedure mentioned above.
# AVEFA [2] = test: Herbicidal post-emergence action 1a (greenhouse pots, visual rating); format: in vivo, Avena fatua; conditions: Dosage 320 g/ha; rated visually about 3 weeks after treatment; 100% = plants have died, 0% = like control plants
# Method: (§2) [table] a) Seeds of monocotyledonous and dicotyledonous weeds and crop plants are placed in sandy loam in plastic or organic plant pots, covered with soil and cultivated in a greenhouse under controlled growth conditions. 2 to 3 weeks after sowing, the test plants are treated at the one-leaf stage. The compounds of the invention, formulated in the form of wettable powders (WP) or as emulsion concentrates (EC), are then sprayed onto the green parts of the plants as aqueous suspension or emulsion with addition of 0.5% additive at a water application rate of 600 1/ha (converted). After the test plants have been kept in the greenhouse under optimum growth conditions for about 3 weeks, the activity of the preparations is rated visually in comparison to untreated controls. For example, 100% activity=the plants have died, 0% activity=like control plants. Tables A1 to A15 below show the effects of selected compounds of the general formula (I) according to Tables 1 and 2 on various harmful plants and an application rate corresponding to 320 g/ha and/or 80 g/ha, which were obtained by the experimental procedure mentioned above.
# AMARE [3] = test: as above; format: in vivo, Amaranthus retroflexus; conditions: visual rating about 3 weeks after treatment
# Method: as §2
# LOLRI [4] = test: as above; format: in vivo, Lolium rigidum; conditions: Dosage 320 g/ha; rated visually about 3 weeks after treatment; 100% = plants have died, 0% = like control plants
# Method: as §2
# POLCO [5] = test: as above; format: in vivo, Polygonum convolvulus; conditions: visual rating about 3 weeks after treatment
# Method: as §2
# POLCO [6] = test: Herbicidal pre-emergence action 2a (greenhouse pots, visual scoring); format: in vivo, Polygonum convolvulus; conditions: dosage 320 g/ha, visual scoring after about 3 weeks vs untreated controls
# Source text: as §1
# ALOMY [7] = test: as above; format: in vivo, Alopecurus myosuroides; conditions: dosage 320 g/ha, visual scoring after about 3 weeks
# Source text: as §1
# ALOMY [8] = test: Herbicidal post-emergence action 1a (greenhouse pots, visual rating); format: in vivo, Alopecurus myosuroides; conditions: rated visually about 3 weeks after treatment, 100% = plants have died, 0% = like control plants
# Method: as §2
# VERPE [9] = test: as above; format: in vivo, Veronica persica; conditions: visual rating about 3 weeks after treatment
# Method: as §2
# SETVI = test: Herbicidal pre-emergence action 2a (greenhouse pots, visual scoring); format: in vivo, Setaria viridis; conditions: dosage 320 g/ha, visual scoring after about 3 weeks vs untreated controls
# Source text: as §1
# LOLRI [10] = test: as above; format: in vivo, Lolium rigidum; conditions: dosage 320 g/ha, visual scoring after about 3 weeks vs untreated controls
# Source text: as §1
# VERPE [11] = test: as above; format: in vivo, Veronica persica; conditions: dosage 320 g/ha, visual scoring after about 3 weeks vs untreated controls
# Source text: as §1
# STEME = test: Herbicidal pre-emergence action 2b (doubly sown, 1280 g/ha); format: in vivo, Stellaria media; conditions: doubly sown pots, dosage 1280 g/ha, visual scoring after about 3 weeks
# Source text: (§3) [table] b) Seeds of mono- and dicotyledonous weed plants are placed in plastic pots in sandy loam soil (doubly sown with one species each of mono- or dicotyledonous weed plants per pot) and covered with soil. The compounds of the invention, formulated in the form of wettable powders (WP) or as emulsion concentrates (EC), are then applied onto the surface of the covering soil as aqueous suspension or emulsion with addition of 0.5% additive at a water application rate equivalent to 600 litres per hectare. After the treatment, the pots are placed in a greenhouse and kept under good growth conditions for the trial plants. After about 3 weeks, the effect of the preparations is scored visually in comparison with untreated controls as percentages. For example, 100% activity=the plants have died, 0% activity=like control plants. Tables B16 to B21 below show the effects of selected compounds of the general formula (I) according to Tables 1 and 2 on various harmful plants and at an application rate corresponding to 1280 g/ha, which were obtained by the experimental procedure mentioned above.
# ECHCG = test: as above; format: in vivo, Echinochloa crus-galli; conditions: doubly sown pots, dosage 1280 g/ha, visual scoring after about 3 weeks
# Source text: as §3
# POAAN = test: as above; format: in vivo, Poa annua; conditions: doubly sown pots, dosage 1280 g/ha, visual scoring after about 3 weeks
# Source text: as §3
# MATIN = test: as above; format: in vivo, Matricaria inodora; conditions: doubly sown pots, dosage 1280 g/ha, visual scoring after about 3 weeks
# Source text: as §3
# AMARE [12] = test: as above; format: in vivo, Amaranthus retroflexus; conditions: doubly sown pots, dosage 1280 g/ha, visual scoring after about 3 weeks
# Source text: as §3
# AMARE [13] = test: Herbicidal pre-emergence action 2a (greenhouse pots, visual scoring); format: in vivo, Amaranthus retroflexus; conditions: dosage 320 g/ha, visual scoring after about 3 weeks vs untreated controls
# Source text: as §1
# ABUTH = test: Herbicidal post-emergence action 1a (greenhouse pots, visual rating); format: in vivo, Abutilon theophrasti; conditions: dosage 80 g/ha, visual rating about 3 weeks after treatment
# Method: as §2
# PHBPU = test: as above; format: in vivo, Pharbitis purpurea; conditions: dosage 80 g/ha, visual rating about 3 weeks after treatment
# Method: as §2
compound,measurement,setting,value
CCOC(=O)[C@@H](C)Oc1nn(-c2cnccn2)c(-c2ccc(F)nc2)c1C1CC1 [Example I-88],Pre-emergence action against AVEFA in %,AVEFA [1],90%
same,Post-emergence action against AVEFA in %,AVEFA [2],100%
same,Post-emergence action against AMARE in %,AMARE [3]; dosage 320 g/ha,80%
same,Post-emergence action against LOLRI in %,LOLRI [4],100%
same,Post-emergence action against POLCO in %,POLCO [5]; dosage 320 g/ha,80%
same,Pre-emergence action against POLCO in %,POLCO [6],80%
same,Pre-emergence action against ALOMY in %,ALOMY [7],100%
same,Post-emergence action against ALOMY in %,ALOMY [8]; Dosage 80 g/ha,80%
same,Post-emergence action against ALOMY in %,ALOMY [8]; Dosage 320 g/ha,100%
same,Post-emergence action against VERPE in %,VERPE [9]; dosage 320 g/ha,80%
same,Pre-emergence action against SETVI in %,SETVI,80%
same,Pre-emergence action against LOLRI in %,LOLRI [10],100%
same,Pre-emergence action against VERPE in %,VERPE [11],90%
C=CCNC(=O)COc1nn(-c2cnccn2)c(-c2cccc(F)c2)c1Br [II-01],Pre-emergence action at 1280 g/ha against STEME in %,STEME,100%
same,Pre-emergence action at 1280 g/ha against ECHCG in %,ECHCG,90%
same,Pre-emergence action at 1280 g/ha against POAAN in %,POAAN,100%
same,Pre-emergence action at 1280 g/ha against MATIN in %,MATIN,100%
same,Pre-emergence action at 1280 g/ha against AMARE in %,AMARE [12],100%
COC(=O)CCNC(=O)[C@@H](C)Oc1nn(-c2cnccn2)c(-c2ccc(F)nc2)c1Br [II-02],Pre-emergence action against ALOMY in %,ALOMY [7],80%
C[C@@H](Oc1nn(-c2cnccn2)c(-c2ccc(F)nc2)c1Br)C(=O)NCC1CC1 [II-06],Pre-emergence action against VERPE in %,VERPE [11],100%
COC(=O)CNC(=O)COc1nn(-c2cnccn2)c(-c2ccc(F)nc2)c1Br [II-08],Post-emergence action against AMARE in %,AMARE [3]; dosage 80 g/ha,80%
same,Pre-emergence action against AMARE in %,AMARE [13],90%
CCOC(=O)CCNC(=O)COc1nn(-c2cnccn2)c(-c2ccc(F)nc2)c1Br [II-09],Post-emergence action against ABUTH in %,ABUTH,90%
same,Post-emergence action against AMARE in %,AMARE [3]; dosage 80 g/ha,90%
same,Post-emergence action against POLCO in %,POLCO [5]; dosage 80 g/ha,80%
same,Post-emergence action against VERPE in %,VERPE [9]; dosage 80 g/ha,90%
O=C(COc1nn(-c2cnccn2)c(-c2ccc(F)nc2)c1Br)NCC1CC1 [II-10],Post-emergence action against PHBPU in %,PHBPU,80%
same,Post-emergence action against AMARE in %,AMARE [3]; dosage 80 g/ha,80%
CN(C)S(=O)(=O)NC(=O)COc1nn(-c2cnccn2)c(-c2ccc(F)nc2)c1Br [II-12],Pre-emergence action against AMARE in %,AMARE [13],80%
same,Pre-emergence action against SETVI in %,SETVI,100%
CC(C)N(C)S(=O)(=O)NC(=O)COc1nn(-c2cnccn2)c(-c2ccc(F)nc2)c1Br [II-13],Post-emergence action against AMARE in %,AMARE [3]; dosage 80 g/ha,80%
same,Pre-emergence action against AMARE in %,AMARE [13],90%
CS(=O)(=O)NC(=O)COc1nn(-c2cnccn2)c(-c2ccc(F)nc2)c1Br [II-14],Pre-emergence action against AMARE in %,AMARE [13],80%
